Earlier results, collected in patent US20070237728A1, “Method and Composition for Dental Bleaching” (HIGH TECH LASER, priority 2000, published 2007).
Where two headings read alike, the source gives them in different places.

Tested on: teeth

Row | SMILES | type of teeth discolouration caused (tetracycline staining of teeth) | type of teeth discolouration caused (in vivo)
1 | CN(C)[C@@H]1C(O)=C(C(N)=O)C(=O)[C@@]2(O)C(O)=C3C(=O)c4c(O)ccc(Cl)c4[C@@H](O)[C@H]3C[C@@H]12 [dimethylchlorotetracyclin] | yellow discolouration | 
2 | CN(C)[C@@H]1C(=O)C(C(N)=O)=C(O)[C@@]2(O)C(=O)C3=C(O)c4c(O)cccc4[C@@](C)(O)[C@H]3[C@H](O)[C@@H]12 [oxytetracyclin] |  | yellow discolouration
3 | CN(C)[C@@H]1C(O)=C(C(N)=O)C(=O)[C@@]2(O)C(O)=C3C(=O)c4c(O)cccc4[C@@](C)(O)[C@H]3C[C@@H]12 [tetracycline] | yellow discolouration | 
